Data set [1] has as its system T. cruzi. Description: Chronic mouse efficacy model of Chagas disease. In kind it is in vivo, Balb/c mice. On the procedure: All regulated procedures on living animals were carried out under the authority of a project license issued by the Home Office under the Animals (Scientific Procedures) Act 1986, as amended in 2012 (and in compliance with EU Directive EU/2010/63). Infected animals had access to food and water ad libitum and were housed under a 12-hour light/dark photoperiod.
Animals used in these experiments were female NMRI and Balb/c mice (Harlan, UK). […]
In vivo Mouse Efficacy Studies.
The T. cruzi chronic efficacy study was run in Balb/c mice as previously described:
M.D. Lewis, A. Fortes Francisco, M.C. Taylor, J.M. Kelly, A new experimental model for assessing drug efficacy against Trypanosoma cruzi infection based on highly sensitive in vivo imaging, J. Biomol. Screen 20 (1) (2015) 36–43

Data set [2] concerns T. cruzi. Description: T. cruzi in vitro washout assay. In kind it is cell-based, Trypanosoma cruzi. The conditions noted are these: for relapses, days post washout: 16-day treatment at 25-fold EC50, two replicates each; for parasites relapsing on day: 8 days of treatment, 50-fold EC50. The source says: T. cruzi in vitro washout assay
This assay was run as previously reported:
Marco M.; Miles T.J.; Naylor C.; Osuna-Cabello M.; Paterson C.; Read K.D.; Pinto E.G.; Riley
J.; Scullion P.; Shishikura Y.; Simeons F.; Stojanovski L.; Svensen N.; Thomas J.; Wyatt P.G.;
disubstituted piperazines for the treatment of Chagas disease. […]

In another data set the target is T. cruzi proteasome (Trypanosoma cruzi, UniProt V5BU39+V5C017). Nature of the data set: T. cruzi proteasome assay (chymotrypsin-like activity, Suc-LLVY-Rho-110-DPro). The conditions noted are these: for Tc Prot Hill Slope / Tc Prot Max Response (%): individual replicate; for Emax: read-out: Tc Prot Max Response (%), individual replicate.
T. cruzi proteasome, sequence (V5BU39 entry or part of it): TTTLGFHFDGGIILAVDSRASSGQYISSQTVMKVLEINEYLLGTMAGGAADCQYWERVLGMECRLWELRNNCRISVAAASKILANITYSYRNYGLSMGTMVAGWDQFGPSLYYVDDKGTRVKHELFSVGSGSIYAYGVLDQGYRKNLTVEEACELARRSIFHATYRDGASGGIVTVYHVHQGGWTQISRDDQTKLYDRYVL
T. cruzi proteasome, sequence (V5C017 entry or part of it): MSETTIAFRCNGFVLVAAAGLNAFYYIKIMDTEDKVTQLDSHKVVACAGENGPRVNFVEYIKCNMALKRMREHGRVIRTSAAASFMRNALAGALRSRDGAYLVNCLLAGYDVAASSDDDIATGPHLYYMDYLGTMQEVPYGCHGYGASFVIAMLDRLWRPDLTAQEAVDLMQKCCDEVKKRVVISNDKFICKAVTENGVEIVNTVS
Data set [3] is described as follows: Kinetic aqueous solubility (UHPLC, PBS pH 7.4). In kind it is physicochemical. The settings on record: phosphate buffered saline, UHPLC UV/MS. The procedure: This assay was conducted as previously described: […]
(§1) were prepared by adding a volume (5 µL) of the 10 mM solution to a volume (195 µL) of […]
format). Samples were then drawn through the filter using vacuum. The filtrate from the above […]
formic acid gradient elution. The UHPLC parameters are shown below:
Gradient program: Initial: 98% A, 2% B
Re-equilibration time: 0.6 min
Autosampler temperature: 25°C
Detector wavelength: 254 nm

Another data set addresses Human 20S proteasome (Homo sapiens, UniProt P28074+P49721). Nature of the data set: human proteasome assay (chymotrypsin-like activity, Suc-LLVY-Rho-110-DPro).
Data set [4] has as its system intracellular T. cruzi X10/7 A1 amastigotes.
The nature of a further data set: ChromLogD. In kind it is physicochemical. The settings on record: pH 7.4; read-out: Chrom LogDpH7.4. On the procedure:
Chrom LogD was measured as previously described:
solubility and hydrophobicity. Drug Discov. Today 2010, 15, 648−655. […]

Data set [5] is described as follows: Mouse microsomal intrinsic clearance. In kind it is in vitro ADME. The conditions noted are these: mouse liver microsomes, scaling 52.5 mg microsomal protein/g liver. The procedure:
Mouse microsomal intrinsic clearance.
This assay was conducted as previously described:
J.; Reid, I. H.; Hill, A. P.;
as §1
In general terms: Liver microsomes are a subcellular fraction often used to study metabolism.

The next data set can be described thus: Brain tissue binding. In kind it is in vitro ADME. The settings on record: read-out: brain tissue free fraction.
A further data set deals with P-gp (MDR1). Description: in vitro. The settings on record: dog, MDCK-MDR1.
Data set [6] is described as follows: In vivo blood exposure / pharmacokinetics in mice. The arrangement: species or system mouse.
Description: Blood samples (10 μL) where taken
and 24 hours post dose samples for I.V. leg only) and mixed with two volumes of deionized water (20 μL). After suitable sample preparation, the concentration of test compound in the whole blood from treated mice was determined by UPLC-MS/MS using a Quattro Premier XE (Waters, USA). Pharmacokinetic parameters were derived from the mean blood concentration time curve using PK solutions software v 2.0 (Summit Research Services, USA).
A short description of a further data set: Brain-blood ratio. In kind it is in vivo. The settings on record: mouse.
Data set [7] in a line: Kinetic solubility by chemiluminescent nitrogen detection (CLND). In kind it is physicochemical.
The nature of a further data set: FaSSIF solubility. The settings on record: fasted state simulated intestinal fluid.
Where [8] appears, read: T. cruzi Prot pIC50, mean of at least three independent replicates.
Setting [9] is: Tc Prot pIC50, individual replicate.
The mark [10] stands for this setting: mean of at least three independent replicates.

In brackets after ≈: the same amount, converted by molar mass. Several values for one entry are separate records, joined by “and”; a condition that tells them apart may be missing. Identical values can stand only once. A value given as a limit tells only on which side of the number the result lay.

Description for FaSSIF solubility: undissolved material using a proprietary filter (Millipore Multiscreen HTS filter, 96-well
was analysed for dissolved drug compound using a truncated UHPLC methodology. A Shimadzu Nexera X2 UHPLC system was used, with a reversed-phase column and a simple
Mobile phase component A HPLC water plus 0.1% formic acid
Mobile phase component B HPLC acetonitrile plus 0.1% formic acid
Column: Hypersil Gold, C18 1.9 µm, 50 x 2.1 mm
A calibration solution was prepared in the following way: The same 10 mM solution used to
was then diluted with 50:50 acetonitrile:water to give a 50 µM solution. Aliquots (0.2, 2.0 and
5.0 µL) of this 50 µM solution were then injected onto the UHPLC system and the areas of the
resultant peaks integrated to produce a calibration line. Aliquots of the test sample filtrate (0.4
and 5.0 µL) were then injected onto the UHPLC system and the resultant peak areas for any
peaks corresponding to the test compound determined and quantified using the calibration line
(the injection volume that gave a peak area closest to the calibrated range was used for
Description for Human 20S proteasome: T. cruzi and human proteasome assays
(§2) The T. cruzi proteasome was partially purified as described in the above reference and Human
(§3) 20S proteasome was purchased from Boston Biochem (now R&D Systems, catalogue number
(§4) a Tecan Fluent to titrate over 11 points in Labcyte Echo-compatible Greiner Bio-One 384 well
(§5) polypropylene microplates. Subsequently, 100 nl of test compound titrations were transferred
(§6) to black Greiner Bio-One low volume 384 well microplates using a Labcyte Echo acoustic
(§7) 50 mM HEPES pH 7.5, 150 mM sodium chloride, 5% Glycerol, 1 mM dithiothreitol, 1 mM
(§8) CHAPS in deionised, filtered water (all chemicals purchased from Sigma Aldrich). Human 20S
(§9) These enzyme solutions were prepared immediately prior to assay initiation and stored at 4 °C
(§10) To monitor the Chymotrypsin-like activity of the T. cruzi and Human 20S proteasome proteins
(§11) a self-quenched, Rhodamine 110-labelled peptide with the sequence Suc-LLVY-Rho-110-
(§12) DPro was used (prepared by Cambridge Research Biochemicals. Suc is succinyl, while DPro
(§13) refers to ᴅ-proline). The peptide was initially prepared from solid as a 10 mM solution in 100%
(§14) DMSO and stored at -20 °C. Prior to use in the assay, an aliquot was thawed at room
(§15) to twofold Km. For use with the Human 20S proteasome, the Suc-LLVY-Rho-110-DPro
(§16) peptide was diluted in assay buffer to a concentration equivalent to twofold Km, which for this
(§17) enzyme was 2 μM. The peptide solutions were protected from light and stored at 4 °C before
(§18) A Multidrop Micro (Thermo Fisher), using a low volume dispense cassette, was used to add
(§19) the assay solutions to the test compounds in the low volume 384-well microplates. Prior to
(§20) addition of proteasome solution, 5 μl of assay buffer was added to one column (containing 100
(§21) nl, 100% DMSO) to act as no enzyme control to mimic full inhibition. Subsequently, 5 μl of
(§22) proteasome solution (either T. cruzi or Human 20S) was added to all wells on the test
(§23) microplate apart from the column containing 5 μl assay buffer. The microplate was then spun
(§24) using a suitable bench top centrifuge for 1 minute at 1000 rpm, before incubation at room
(§25) Following the initial incubation, 5 μl of substrate solution was then added to all wells on the
(§26) test microplate using a Multidrop Micro equipped with a discrete low volume dispense cassette.
(§27) The test microplates were then spun for 10 seconds at 1000 rpm before being rapidly moved to
(§28) a multi-mode microplate reader, capable of monitoring fluorescence intensity. The microplate
(§29) reader used for these studies was a Tecan M1000 Pro, equipped with quad monochromators.
(§30) 530 ± 5 nm. A series of fluorescence intensity measurements were taken every 30 seconds for
(§31) Subsequently, the fluorescence intensity measurements (relative fluorescence units, RFU) were
(§32) fit to a simple linear regression model (y = A + Bx, where y refers to the fluorescence intensity
(§33) and x refers to the time in seconds) to determine the initial rate of reaction. The initial rate for
(§34) every compound concentration tested was then fit a 4-parameter logistic model: y = (A + (B -
(§35) A)) / (1 + (x / C)D), where y refers to the assay response, x refers to the inhibitor concentration,
(§36) A and B are the range values (minimum and maximum, respectively), C is the IC50 value and
(§37) D is the slope. Potency values were then reported as pIC50, which is the negative log of the
(§38) IC50 (on a molar scale). Data analysis was automated and carried out using the ActivityBase
Description for P-gp (MDR1): MDR1-MDCK Permeability assay
Bi-directional transport was assessed in the presence and absence of Pgp inhibitor GF120918
(Elacridar). MDCK-MDR1 cells (Netherlands Cancer Institute) were maintained in culture
(DMEM, Gibco Cat: 61965-026 supplemented with 1% penicillin/streptomycin, 10% FCS)
until required. For experimentation, cells were seeded onto individual transwell ’Thincerts’
(Greiner, Cat 662610) at a density of 35,000 cells/well. Cells were grown at 37 °C, 5% CO2 for
3 days. On day 4, media was replaced with fresh media and incubated for 1 hour. Prior to
experimentation, cells were incubated with Dulbeccos PBS (Gibco, 14287-080) with/without
Pgp inhibitor, 2 µM GF120918, to ensure inactivation of the Pgp transporter. Cells were then
dosed apically and basolaterally (1 µM test compound, 10 µM Lucifer Yellow (1% DMSO)
with/without 2 µM GF120918) for 1 hour. 100 mL of solution from donor and receiver wells
was removed to a 96 well deepwell plate alongside 100 mL of dosing solution. 150 µL of
acetonitrile containing internal standard (e.g., 100 ng/mL Sulfadimethoxine) was then added
to all samples prior to analysis by LC-MS/MS. Amprenavir (positive control) were run […]
a Lucifer Yellow standard curve for fluorescence determination of Lucifer Yellow
concentrations. Papp (apparent permeability) values were calculated for each compound for […]
efflux ratios (ER) determined using the following equations: […]
Description for T. cruzi proteasome: T. cruzi and human proteasome assays
as §2, §3, §4, §5, §6, §7, §8, §9, §10, §11, §12, §13, §14, §15, §16, §17, §18, §19, §20, §21, §22, §23, §24, §25, §26, §27, §28, §29, §30, §31, §32, §33, §34, §35, §36, §37, §38

For the molecule `O=C(Cn1ccnc1[N+](=O)[O-])NCc1ccccc1` [BNZ, benznidazole, reference compound], the cure entry in the data set on T. cruzi [1] (100 mg/kg for 20 days, u.i.d) is “cured all mice”. Further, the “effect on parasite levels” value with T. cruzi [1] (dosed at 100 mg/kg) is on record as “reduced parasite levels below detectable limits”. Also, in the data set on T. cruzi [2], the “relapses, days post washout” value is 31 days and 35 days; the “parasites relapsing on day” value is 21 days.

For `O=C(NC1CC1)c1ccc(F)c(NC(=O)c2ccc(=O)n(Cc3ccccc3)n2)c1` [Compound 10, 1-Benzyl-N-(5-(cyclopropylcarbamoyl)-2-fluorophenyl)-6-oxo-1,6-dihydropyridazine-3-carboxamide], the half-inhibitory concentration (IC50) is 1580 nM on T. cruzi proteasome (setting [8]) and greater than 100000 nM against T. cruzi proteasome (setting [9]). Moreover, on T. cruzi proteasome, the “Tc Prot Hill Slope” value is recorded as 1.2. Further, on T. cruzi proteasome, the “Tc Prot Max Response (%)” value is 35% and 20% and 57%. Besides, the EC50 (in the data set with host VERO cells; in [4]) was greater than 50100 nM in each case. In data set [3], this molecule had a solubility at 24 h of 1.5 µM (≈ 0.61 µg/mL). For the same molecule, the “Hs Prot Max Response (%)” value at Human 20S proteasome (individual replicate) is 17% and 3% and 2.27%. Moreover, the “Hs Prot pIC50” value at Human 20S proteasome (individual replicate) and at Human 20S proteasome (setting [10]) was less than 4 in each case. Further, the chromatographic logD in “ChromLogD” amounted to 4.1. Besides, in data set [5], the “Mouse CLi” value came to 3.1 mL/min/g.

Take `O=C(Nc1ccc(F)c(-c2cn3nc(N4CCOCC4)cnc3n2)c1)N1CCCC1` [Compound 4]: on T. cruzi proteasome (setting [9]), the half-maximal inhibitory concentration (IC50) is < 1.58 nM and 3.98 nM and 7.94 nM and 1.58 nM and 2.51 nM and 12.6 nM and 5.01 nM and 10 nM. Moreover, on T. cruzi proteasome, the “Tc Prot Hill Slope” value is 1.0 and 0.8 and 0.7 and 0.9 and 0.75 and 1.1 and 0.95; the “Tc Prot Max Response (%)” value was 89% and 88% and 85% and 90% and 87%; the Emax amounted to 91%. The fraction unbound in the data set “Brain tissue binding” stood at 0.043. The efflux ratio at 1 h, 1 µM in the data set with P-gp (MDR1) was determined as 22. For the same molecule, the IC50 on Human 20S proteasome (Hs Prot pIC50, individual replicate) is 25100 nM and 79400 nM. For the same molecule, at Human 20S proteasome (individual replicate), the “Hs Prot Hill Slope” value was 1.7 and 0.9 and 1.3; the “Hs Prot Max Response (%)” value is 35% and 21% and 42% and 24% and 10% and 50% and 28% and 48% and 38% and 29% and 47% and 41% and 54% and 44% and 52% and 49% and 40%; the “Hs Prot pIC50” value was less than 4. Moreover, at Human 20S proteasome (setting [10]), the “Hs Prot pIC50” value is less than 4. Moreover, the “effect on parasite levels” value in the data set on T. cruzi [1] (5 days at 50 mg/kg bid) is “no visible effect on parasite levels”. In [6] (from blood exposure in chronic efficacy model, brain-blood ratio and brain free fraction), the “predicted brain exposure relative to T. cruzi EC99” value is listed as “well below T. cruzi EC99”. In addition, the “time blood exposure above T. cruzi EC99” value in data set [6] (mouse VL efficacy study, 50 mg/kg, also when corrected for plasma protein binding) is given as greater than 8 h. Also, in the data set with T. cruzi [2], the “parasites relapsing on day” value was found to be 34 days. Also, in [4], the EC50 is 100 nM and 126 nM and 63.1 nM; the Emax is 95% and 90% and 93% and 98% and 99% and 96% and 92% and 100%. The Kp in “Brain-blood ratio” is 0.07. The molecule further returned an aqueous solubility in data set [7] of 59 µM (≈ 24.3 µg/mL). The “Mouse CLi” value in [5] is less than 0.5 mL/min/g. Besides, the FaSSIF solubility in the data set “FaSSIF solubility” was 32 µM.

On to `CNC(=O)c1cc(NC(=O)c2ccc(=O)n(Cc3ccc(OC)cc3)n2)ccc1F` [Compound 26, N-(4-Fluoro-3-(methylcarbamoyl)phenyl)-1-(4-methoxybenzyl)-6-oxo-1,6-dihydropyridazine-3-carboxamide], for which the IC50 at T. cruzi proteasome (setting [9]) is 63.1 nM and 31.6 nM. Moreover, on T. cruzi proteasome, the “Tc Prot Hill Slope” value was 1.0 and 1.1; the “Tc Prot Max Response (%)” value worked out at 82%; the Emax was 73%. For the same molecule, in the data set on host VERO cells, the EC50 is greater than 50100 nM and the Emax came out at 20%. Moreover, on Human 20S proteasome (individual replicate), the “Hs Prot Max Response (%)” value is 21% and 3% and 0%; the “Hs Prot pIC50” value is less than 4. Besides, at Human 20S proteasome (setting [10]), the “Hs Prot pIC50” value is reported as less than 4. Moreover, the cure result in the data set with T. cruzi [1] (50 mg/kg b.i.d for 20 days) is “not curative”. In addition, in the data set with T. cruzi [2], the “relapses, days post washout” value is 35 days and 42 days. In data set [4], the EC50 is 794 nM and 631 nM and 501 nM and 1000 nM; the Emax is 92% and 94% and 95% and 87% and 86% and 98% and 90%.

For `O=C(Nc1ccc(F)c(C(=O)NC2CC2)c1)c1ccc(=O)n(Cc2ccccc2)n1` [Compound 9, 1-Benzyl-N-(3-(cyclopropylcarbamoyl)-4-fluorophenyl)-6-oxo-1,6-dihydropyridazine-3-carboxamide], the IC50 is 158 nM against T. cruzi proteasome (setting [8]); 251 nM and 200 nM and 100 nM at T. cruzi proteasome (setting [9]). The “Tc Prot Hill Slope” value on T. cruzi proteasome was 1.0 and 0.9. Moreover, the “Tc Prot Max Response (%)” value on T. cruzi proteasome was 83% and 82%. Moreover, the Emax at T. cruzi proteasome is 71%; in the data set with host VERO cells, 29%; on Human 20S proteasome (read-out: Hs Prot Max Response (%), individual replicate), 7%; in [4], 94% and 90% and 82% and 88% and 89%. Besides, the EC50 with host VERO cells was greater than 50100 nM; in data set [4], 2000 nM. In data set [3], this molecule displayed a solubility at 24 h of 218 µM (≈ 88.6 µg/mL). Further, the “Hs Prot Max Response (%)” value on Human 20S proteasome (individual replicate) is 8.53% and 11% and 6%. The “Hs Prot pIC50” value on Human 20S proteasome (individual replicate) and on Human 20S proteasome (setting [10]) was less than 4 throughout. In the data set “ChromLogD”, the chromatographic logD came out at 4.2. For the same molecule, the “Mouse CLi” value in [5] is 6.7 mL/min/g.

What is called IC50 is the concentration that gives 50% inhibition. Low values mean inhibition by little substance, high ones a need for much substance. As usually defined, the EC50 is the concentration giving half of the maximal effect. One may read the solubility as the concentration that dissolves in the medium under given conditions. High values mean a readily soluble substance, low ones a poorly soluble substance. A word on the efflux ratio: it is the permeability from basolateral to apical divided by that in the opposite direction, in the common usage. One may read the Kp as tissue or fluid exposure divided by exposure in the circulation. Broadly, the aqueous solubility is the dissolved amount per volume that the medium holds. A lower aqueous solubility goes with a poorly soluble substance.

These data come from article PMC10424187, “Structure-Guided Design and Synthesis of a Pyridazinone Series of Trypanosoma cruzi Proteasome Inhibitors” (Journal of Medicinal Chemistry, 2023).
